The values that follow come from article PMC4896453 (PLoS ONE, 2016).

For one data set, the system named is rat. To be noted: in vivo; cited from earlier work.
The target in data set [1] is T1, NOP receptor (CHOhNOP cells) (Homo sapiens, UniProt P41146).
T1 construct: expressed in transfected cells; host or cells: CHO (Chinese Hamster Ovary)
In words: cAMP assay, forskolin-stimulated CHOhNOP whole cells. To be noted: forskolin 1μM, mean (±SEM). It is filed as cell-based. Here is the method: (§1) CHOhMu and CHOhNOP whole cells were suspended in Krebs/HEPES buffer, containing isobutylmethylxanthine (1mM) and forskolin (1μM).

Data set [2] concerns the target T2, Mu receptor (CHOhMu cells) (Homo sapiens, UniProt P35372).
T2 construct: expressed in transfected cells; host or cells: CHO (Chinese Hamster Ovary)
In words: cAMP assay, forskolin-stimulated CHOhMu whole cells. It counts as cell-based. To be noted: forskolin 1μM, mean (±SEM). Here is the method:
as §1
Background: cAMP levels reflect the balance of adenylyl cyclase and phosphodiesterase activity.

In the next data set the test system is monkey. Conditions: monkey tail withdraw assay; cited from earlier work.
Data set [3] concerns the target T3, human Mu receptor (Mu-RLuc/β-arrestin 2-RGFP) (Homo sapiens, UniProt P35372).
T3 construct: expressed in transfected cells; host or cells: SH-SY5Y (retroviral expression; whole cells)
Briefly: BRET Mu-RLuc/β-arrestin 2-RGFP interaction, SH-SY5Y cells. It is filed as cell-based. To be noted: BRET, SH-SY5Y cells, room temperature; at least 4 experiments in duplicate. (Bioluminescence resonance energy transfer reports proximity on the nanometre scale.)

A further data set concerns the target T4, human Mu receptor (Homo sapiens, UniProt P35372).
T4 construct: expressed in transfected cells; host or cells: CHO
Briefly: Calcium mobilisation, CHO cells with Mu and Gαqi5. It is filed as cell-based. Conditions: calcium mobilisation, at least 3 experiments in duplicate. (In general: Calcium flux is commonly read through the fluorescence of an indicator in the cells.)

Data set [4] has as its system electrically stimulated guinea pig ileum. Briefly: Electrically stimulated guinea pig ileum bioassay. Conditions: for Kb: Cavia porcellus. Here is the method: With approval of Animal Subjects Review Board of the University of Ferrara and from the Italian Ministry of Health (PROT-186) ileum tissues were taken from male albino guinea pigs of 350–400 g (Pampaloni, Pisa, Italy). The animals were treated in accordance with European guidelines (86/609/ECC) and national regulations (DL 116/92). They were housed in 560 x 320 x 180 mm cages (Techinplast), three per cage, under standard conditions (22°C, 55% humidity, 12 h light/dark cycle, light on at 7:00 h) with food (complete feed for guinea pig, Mucedola, Milano, Italy) and water ad libitum. The day of the experiment the animals were killed with an isofluorane overdose. Bioassay experiments were performed as previously described. The tissues were suspended in 5 ml organ baths containing Krebs solution (composition in mM: NaCl 118.5, KCl 4.7, MgSO4 1.2, KH2PO4 1.2, NaHCO3 25, CaCl2 1.8, glucose 10), hexamethonium bromide 22 μM, benadril 0.34 μM and oxygenated with 95% O2 and 5% CO2. The temperature was set at 37°C. At resting tension, 1 g was applied to the tissues. Tissues were stimulated through two platinum electrodes with a supramaximal rectangular pulse of 1 ms duration, 0.05 Hz frequency, 80V amplitude. Electrically evoked contractions were measured isotonically by means of Basile strain gauge transducers (Basile 7006; srl Ugo Basile, Varese, Italy) and recorded with a computer–based acquisition system (Power Lab 8, ADInstruments, USA). After an equilibration period of about 60 min, the contractions induced by electrical field stimulation were stable. At this time, cumulative concentration response curves to agonists were constructed (0.5 log unit steps). Antagonists were injected into the baths 15 minutes before constructing agonist concentration response curves.
Data are expressed as mean±SEM or with confidence intervals as appropriate. For more than 2 groups, data are analysed using ANOVA with post-hoc testing using Dunnett’s or Bonferroni’s test as appropriate. Where there are only 2 groups paired or unpaired t-tests were used. P values of less than 0.05 were considered significant. All curve fitting was accomplished using Graphpad-Prism (V6). […] In gpI experiments the antagonist potency (pKb) is calculated from the rightward shift of the agonist concentration response curve by a fixed antagonist concentration.

Data set [5] addresses T5, human NOP receptor (NOP-RLuc/β-arrestin 2-RGFP) (Homo sapiens, UniProt P41146).
T5 construct: expressed in transfected cells; host or cells: HEK-293 (retroviral expression; whole cells)
Briefly: BRET NOP-RLuc/β-arrestin 2-RGFP interaction, HEK-293 cells. It is filed as cell-based. To be noted: BRET, HEK-293 cells, room temperature; at least 4 experiments in duplicate.

The target in data set [6] is human NOP receptor (NOP-RLuc/Gβ1-RGFP) (Homo sapiens, UniProt P41146). In words: biochemical. It is filed as biochemical.
The next data set deals with T6, human NOP receptor (Homo sapiens, UniProt P41146).
T6 construct: expressed in transfected cells; host or cells: CHO
Briefly: Calcium mobilisation, CHO cells with NOP and Gαqi5. It counts as cell-based. To be noted: calcium mobilisation, CHO cells with human NOP and Gαqi5, Fluo-4 AM, 37°C; at least 3 experiments in duplicate.

The test system of the next data set is rats. In words: Rota-rod test after intrathecal infusion. It counts as in vivo, rat. Conditions: same range of doses (0.1–1 nmol), data not shown. As for the experimental part:
For all the experiments described below, male Sprague-Dawley rats (Harlan, Varese, Italy), weighing approximately 280-300g at the beginning of the experimental procedure, were used. Animals were housed in CeSAL (Centro Stabulazione Animali da Laboratorio, University of Florence) and used at least one week after their arrival. One rat was housed per cage (size 26x41 cm); animals were fed with standard laboratory diet and tap water ad libitum, and kept at 23±1°C with a 12 h light/dark cycle, light at 7 a.m. […] All animals were monitored daily using a scoring system (based on: Appearance, Food and Water Intake, Clinical Signs, Natural Behaviour and Provoked Behaviour. Maximum score is 20 and animals reaching 10 are euthanized. In the experiments reported here no animals reached this score and none died before the end of the experiment) and at the end of the experiment were euthanized by CO2 overdose. […]
Rota-rod apparatus (Ugo Basile, Varese, Italy) consisted of a base platform and a rotating rod with a diameter of 6 cm and a non-slippery surface. […] The integrity of motor coordination was assessed on the basis of the number of falls from the rod in 60s measured 15, 30, 45, 60, 90, 120 and 180 min after treatments.

Where [7] appears, read: antagonist 15 minutes before agonist curve, from rightward shift, read-out: antagonist potency pKb against DeNo (converted).

Entries after “also recorded” stand apart in the source; their conditions may differ. Like-named read-outs stand apart in the source and are kept apart here.

T4 sequence (P35372 whole entry): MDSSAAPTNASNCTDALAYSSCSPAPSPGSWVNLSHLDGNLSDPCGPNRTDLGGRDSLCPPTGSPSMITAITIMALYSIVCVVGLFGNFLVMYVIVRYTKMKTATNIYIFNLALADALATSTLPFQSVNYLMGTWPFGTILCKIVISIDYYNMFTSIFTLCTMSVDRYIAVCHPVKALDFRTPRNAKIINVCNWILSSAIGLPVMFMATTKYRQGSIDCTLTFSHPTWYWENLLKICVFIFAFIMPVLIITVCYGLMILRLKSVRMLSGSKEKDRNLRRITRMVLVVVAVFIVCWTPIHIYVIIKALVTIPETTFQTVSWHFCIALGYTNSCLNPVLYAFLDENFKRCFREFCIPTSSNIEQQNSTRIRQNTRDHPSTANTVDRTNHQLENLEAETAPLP
Sequence of human NOP receptor (NOP-RLuc/Gβ1-RGFP) (P41146 whole entry, looked up): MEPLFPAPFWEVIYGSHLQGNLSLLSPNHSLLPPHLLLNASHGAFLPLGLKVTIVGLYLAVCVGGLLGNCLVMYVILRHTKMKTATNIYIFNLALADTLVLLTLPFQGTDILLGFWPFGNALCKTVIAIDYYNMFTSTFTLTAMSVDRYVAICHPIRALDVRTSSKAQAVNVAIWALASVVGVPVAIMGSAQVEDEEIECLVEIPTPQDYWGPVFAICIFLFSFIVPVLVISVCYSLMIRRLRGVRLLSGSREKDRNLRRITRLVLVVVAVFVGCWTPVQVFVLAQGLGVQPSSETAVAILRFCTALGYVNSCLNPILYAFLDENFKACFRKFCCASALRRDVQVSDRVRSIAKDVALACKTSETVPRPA
T2 sequence (P35372 whole entry): as the sequence (P35372 whole entry) above
T3 sequence (P35372+P27652 fused): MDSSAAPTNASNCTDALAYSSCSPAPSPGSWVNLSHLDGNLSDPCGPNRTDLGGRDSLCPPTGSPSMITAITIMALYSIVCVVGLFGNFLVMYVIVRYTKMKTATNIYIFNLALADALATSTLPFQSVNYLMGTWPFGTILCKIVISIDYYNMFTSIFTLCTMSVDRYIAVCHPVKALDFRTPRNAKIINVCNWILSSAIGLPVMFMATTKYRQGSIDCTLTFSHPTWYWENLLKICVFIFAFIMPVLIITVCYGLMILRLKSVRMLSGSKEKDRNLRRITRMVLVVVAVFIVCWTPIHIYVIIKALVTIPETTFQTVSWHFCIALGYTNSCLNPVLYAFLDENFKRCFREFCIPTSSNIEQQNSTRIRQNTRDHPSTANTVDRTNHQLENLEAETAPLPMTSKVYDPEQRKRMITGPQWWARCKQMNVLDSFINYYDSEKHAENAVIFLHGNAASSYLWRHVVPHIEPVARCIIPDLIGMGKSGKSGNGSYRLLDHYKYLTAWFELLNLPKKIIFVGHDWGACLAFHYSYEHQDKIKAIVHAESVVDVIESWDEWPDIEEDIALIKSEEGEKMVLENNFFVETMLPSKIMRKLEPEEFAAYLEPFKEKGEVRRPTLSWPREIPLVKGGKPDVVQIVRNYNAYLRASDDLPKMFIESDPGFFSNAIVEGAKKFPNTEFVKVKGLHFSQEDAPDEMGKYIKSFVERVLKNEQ
T3 sequence (P32121 whole entry partner): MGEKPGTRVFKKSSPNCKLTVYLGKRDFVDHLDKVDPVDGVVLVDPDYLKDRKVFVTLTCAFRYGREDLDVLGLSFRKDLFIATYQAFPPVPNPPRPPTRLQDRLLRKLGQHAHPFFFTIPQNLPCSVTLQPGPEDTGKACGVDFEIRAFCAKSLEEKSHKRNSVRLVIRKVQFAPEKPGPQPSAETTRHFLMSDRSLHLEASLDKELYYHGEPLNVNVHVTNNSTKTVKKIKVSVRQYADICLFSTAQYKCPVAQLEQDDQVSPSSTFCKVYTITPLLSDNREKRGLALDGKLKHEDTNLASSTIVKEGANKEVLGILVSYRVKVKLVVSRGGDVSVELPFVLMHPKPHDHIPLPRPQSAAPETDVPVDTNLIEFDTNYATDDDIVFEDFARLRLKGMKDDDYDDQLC
T6 sequence (P41146 whole entry): as the sequence (P41146 whole entry, looked up) above
T1 sequence (P41146 whole entry): as the sequence (P41146 whole entry, looked up) above
T5 sequence (P41146+P27652 fused): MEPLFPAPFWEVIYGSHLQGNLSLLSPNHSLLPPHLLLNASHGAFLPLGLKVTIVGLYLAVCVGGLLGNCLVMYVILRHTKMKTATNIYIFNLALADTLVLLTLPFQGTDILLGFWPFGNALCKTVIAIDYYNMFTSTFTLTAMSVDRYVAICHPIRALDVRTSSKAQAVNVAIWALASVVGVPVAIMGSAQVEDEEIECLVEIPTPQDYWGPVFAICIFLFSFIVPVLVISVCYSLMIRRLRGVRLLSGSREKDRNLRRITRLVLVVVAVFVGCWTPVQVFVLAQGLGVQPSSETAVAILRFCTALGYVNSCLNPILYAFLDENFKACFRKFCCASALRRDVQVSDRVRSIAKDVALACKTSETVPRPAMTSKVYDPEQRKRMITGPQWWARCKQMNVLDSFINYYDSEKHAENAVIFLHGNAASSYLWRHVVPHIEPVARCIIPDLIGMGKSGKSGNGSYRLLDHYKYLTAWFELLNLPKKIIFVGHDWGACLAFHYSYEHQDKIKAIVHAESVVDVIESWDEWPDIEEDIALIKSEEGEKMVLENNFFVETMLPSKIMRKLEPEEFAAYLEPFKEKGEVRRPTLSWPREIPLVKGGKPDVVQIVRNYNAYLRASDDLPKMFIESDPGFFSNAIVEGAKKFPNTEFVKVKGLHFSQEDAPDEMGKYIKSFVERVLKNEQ
T5 sequence (P32121 whole entry partner): as the sequence (P32121 whole entry partner) above

On to `CN1CC[C@]23c4c5ccc(O)c4O[C@H]2[C@@H](O)C=C[C@H]3[C@H]1C5` [morphine], for which, in the data set with rat, the time to tolerance was 11 days.

Consider `C=C[C@@]1(C)CC(=O)[C@]2(O)[C@@]3(C)[C@@H](O)CCC(C)(C)[C@@H]3[C@H](O)[C@H](OC(C)=O)[C@@]2(C)O1` [forskolin], for which, in [1], the “increase in cAMP production compared to basal, CHOhNOP” value was 21.23 (±3.86) fold. For the same compound, the “increase in cAMP production compared to basal, CHOhMu” value in data set [2] is 24.3 (±1.79) fold.

Consider [Dmt^1]N/OFQ(1–13)-NH2, for which, in the data set with monkey, the “increase in potency over N/OFQ” value is reported as 30 fold.

For `CC(C)C[C@H](NC(=O)[C@H](CCCCN)NC(=O)[C@H](CCCNC(=N)N)NC(=O)[C@H](C)NC(=O)[C@H](CO)NC(=O)[C@H](CCCCN)NC(=O)[C@H](CCCNC(=N)N)NC(=O)[C@H](C)NC(=O)CNC(=O)[C@@H](NC(=O)[C@H](Cc1ccccc1)NC(=O)CNC(=O)CNC(=O)[C@@H](N)Cc1ccccc1)[C@@H](C)O)C(=O)N[C@@H](C)C(=O)N[C@@H](CC(N)=O)C(=O)N[C@@H](CCC(N)=O)C(=O)O` [N/OFQ, nociceptin/orphanin FQ], in data set [3], the “β-arrestin 2 Mu pEC50 (CL95%)” value is “inactive”. Also, the “Mu Emax ± SEM” value on human Mu receptor (% over basal fluorescence, CHO cells with human Mu and Gαqi5) was “Inactive”. Further, the “Mu pEC50 (CL95%)” value at human Mu receptor (CHO cells with human Mu and Gαqi5, Fluo-4 AM, 37°C) is on record as “Inactive”.

For `Cc1cccc2c1CC[C@H](CN1CCC(c3c(Cl)cccc3Cl)CC1)C[C@@H]2O` [SB-612111], the Kb in [4] (antagonist 100 nM, 15 minutes before agonist curve, from rightward shift, read-out: antagonist potency pKb against N/OFQ (converted)) is 4.37 nM; in data set [4] (setting [7]), 85.1 nM.

As to `C=CCN1CC[C@]23c4c5ccc(O)c4O[C@H]2C(=O)CC[C@@]3(O)[C@H]1C5` [naloxone, Naloxone], the Kb in data set [4] (setting [7]) was 28.8 nM; in data set [4] (read-out: antagonist potency pKb against dermorphin (converted), antagonist 15 minutes before agonist curve, from rightward shift) it was 2.69 nM. Moreover, the “antagonist potency pKb against N/OFQ” value in data set [4] (antagonist 100 nM, 15 minutes before agonist curve, from rightward shift) is “does not affect the inhibitory action of N/OFQ”.

For orientation: Emax means the size of the effect at its maximum, as opposed to the concentration needed. As to `C[C@@H](NC(=O)[C@@H](N)Cc1ccc(O)cc1)C(=O)N[C@@H](Cc1ccccc1)C(=O)NCC(=O)N[C@@H](Cc1ccc(O)cc1)C(=O)N1CCC[C@H]1C(=O)N[C@@H](CO)C(N)=O` [dermorphin], the “β-arrestin 2 NOP pEC50 (CL95%)” value in data set [5] is “completely inactive”. For the same compound, the “Gβ1-protein NOP pEC50(CL95%)” value in data set [6] is reported as “very weak only increasing BRET ratio at micromolar concentrations; also recorded: crc incomplete”. The “NOP pEC50 (CL95%)” value on human NOP receptor was “crc incomplete”. The “animal performance in the rotarod test” value with rats was “impaired animal performance in the rotarod test”. Moreover, the Emax at human Mu receptor (% over basal fluorescence, CHO cells with human Mu and Gαqi5, SEM) came out at 234 ± 14%.
